Assay results reported in patent publication US20260042731A1, “(2,4-DICHLOROPHENOXY)ACETIC ACID ANALOGS” (CORTEVA AGRISCIENCE LLC, priority 2022, published 2026).
Like-named read-outs stand apart in the source and are kept apart here.

How the values were obtained:
[1] = system: Abutilon theophrasti (ABUTH), velvetleaf; assay: Postemergence herbicide evaluation, growth of Abutilon theophrasti (ABUTH); format: in vivo; details: Abutilon theophrasti, post-emergence, read-out: AVE. ABUTH, percent reduction in plant size relative to the untreated control; for pest or weed control at 280 g/ha: 280 g ae/ha; for pest or weed control at 560 g/ha: 560 g ae/ha
[2] = system: Ambrosia artemisiifolia (AMBEL), common ragweed; assay: Postemergence herbicide evaluation, growth of Ambrosia artemisiifolia (AMBEL); format: in vivo; details: Ambrosia artemisiifolia, post-emergence, read-out: AVE. AMBEL, percent reduction in plant size relative to the untreated control; for pest or weed control at 280 g/ha: 280 g ae/ha; for pest or weed control at 560 g/ha: 560 g ae/ha
[3] = system: Chenopodium album (CHEAL), common lambsquarters; assay: Postemergence herbicide evaluation, growth of Chenopodium album (CHEAL); format: in vivo; details: Chenopodium album, post-emergence, read-out: Ave. CHEAL, percent reduction in plant size relative to the untreated control; for pest or weed control at 280 g/ha: 280 g ae/ha; for pest or weed control at 560 g/ha: 560 g ae/ha
[4] = system: Amaranthus rudis (AMATA), tall water hemp; assay: Postemergence herbicide evaluation, growth of Amaranthus rudis (AMATA); format: in vivo; details: Amaranthus tuberculatus, post-emergence, read-out: Ave. AMATA, percent reduction in plant size relative to the untreated control; for pest or weed control at 280 g/ha: 280 g ae/ha; for pest or weed control at 560 g/ha: 560 g ae/ha
[5] = Volatility of compounds measured by thermogravimetric analysis (TGA); format: physicochemical
[6] = system: weeds ABUTH, AMATA, AMBEL, CHEAL, ERICA; assay: Postemergence herbicide evaluation, overall average % weed control (ABUTH, AMATA, AMBEL, CHEAL, ERICA); format: in vivo; details: post-emergence, read-out: Overall Ave % Weed Control; for pest or weed control at 280 g/ha: 280 g ae/ha; for pest or weed control at 560 g/ha: 560 g ae/ha
[7] = system: glyphosate resistant Conyza canadensis (L.) (ERICA), horseweed; assay: Postemergence herbicide evaluation, growth of Conyza canadensis (ERICA); format: in vivo; details: Erigeron canadensis, post-emergence, read-out: Ave. ERICA, percent reduction in plant size relative to the untreated control; for pest or weed control at 280 g/ha: 280 g ae/ha; for pest or weed control at 560 g/ha: 560 g ae/ha

Row | Compound | pest or weed control at 280 g/ha ([1]; 168 h, 7 DAA) | pest or weed control at 560 g/ha ([1]; 168 h, 7 DAA) | pest or weed control at 280 g/ha ([1]; 336 h, 14 DAA) | pest or weed control at 560 g/ha ([1]; 336 h, 14 DAA) | pest or weed control at 280 g/ha ([1]; 504 h, 21 DAA) | pest or weed control at 560 g/ha ([1]; 504 h, 21 DAA) | pest or weed control at 280 g/ha ([2]; 168 h, 7 DAA) | pest or weed control at 560 g/ha ([2]; 168 h, 7 DAA) | pest or weed control at 280 g/ha ([2]; 336 h, 14 DAA) | pest or weed control at 560 g/ha ([2]; 336 h, 14 DAA) | pest or weed control at 280 g/ha ([2]; 504 h, 21 DAA) | pest or weed control at 560 g/ha ([2]; 504 h, 21 DAA) | pest or weed control at 280 g/ha ([3]; 168 h, 7 DAA) | pest or weed control at 560 g/ha ([3]; 168 h, 7 DAA) | pest or weed control at 280 g/ha ([3]; 336 h, 14 DAA) | pest or weed control at 560 g/ha ([3]; 336 h, 14 DAA) | pest or weed control at 280 g/ha ([3]; 504 h, 21 DAA) | pest or weed control at 560 g/ha ([3]; 504 h, 21 DAA) | pest or weed control at 280 g/ha ([4]; 168 h, 7 DAA) | pest or weed control at 560 g/ha ([4]; 168 h, 7 DAA) | other results
1 | O=C(COc1ccc(Cl)cc1Cl)Nc1cc[nH]n1 [Compound D21] | 32.5% | 47.5% | 37.5% | 57.5% | 47.5% | 75% | 75% | 85% | 70% | 92.5% | 99.5% | 100% | 82.5% | 80% | 95% | 92.5% | 92.5% | 96% | 72.5% | 90% | pest or weed control at 280 g/ha ([4]; 336 h, 14 DAA): 88%; pest or weed control at 560 g/ha ([4]; 336 h, 14 DAA): 90%; pest or weed control at 280 g/ha ([4]; 504 h, 21 DAA): 67.5%; pest or weed control at 560 g/ha ([4]; 504 h, 21 DAA): 100%; TGA Data (rate of weight loss, volatility) [5]: 0.07078 µg/min; pest or weed control at 280 g/ha ([6]; 168 h, 7 DAA): 69%; pest or weed control at 560 g/ha ([6]; 168 h, 7 DAA): 76.5%; pest or weed control at 280 g/ha ([6]; 336 h, 14 DAA): 78.1%; pest or weed control at 560 g/ha ([6]; 336 h, 14 DAA): 86.5%; pest or weed control at 280 g/ha ([6]; 504 h, 21 DAA): 80.4%; pest or weed control at 560 g/ha ([6]; 504 h, 21 DAA): 93.8%; pest or weed control at 280 g/ha ([7]; 168 h, 7 DAA): 82.5%; pest or weed control at 560 g/ha ([7]; 168 h, 7 DAA): 80%; pest or weed control at 280 g/ha ([7]; 336 h, 14 DAA): 100%; pest or weed control at 560 g/ha ([7]; 336 h, 14 DAA): 100%; pest or weed control at 280 g/ha ([7]; 504 h, 21 DAA): 95%; pest or weed control at 560 g/ha ([7]; 504 h, 21 DAA): 98%
2 | CC(C)CONC(=O)COc1ccc(Cl)cc1Cl [Compound D22] | 72.5% | 82.5% | 93.5% | 98.5% | 100% | 99% | 90% | 85% | 90% | 97.5% | 100% | 100% | 80% | 82.5% | 91.5% | 99% | 97.5% | 97.5% | 80% | 92.5% | pest or weed control at 280 g/ha ([4]; 336 h, 14 DAA): 92.5%; pest or weed control at 560 g/ha ([4]; 336 h, 14 DAA): 92.5%; pest or weed control at 280 g/ha ([4]; 504 h, 21 DAA): 87.5%; pest or weed control at 560 g/ha ([4]; 504 h, 21 DAA): 100%; TGA Data (rate of weight loss, volatility) [5]: 0.2649 µg/min; pest or weed control at 280 g/ha ([6]; 168 h, 7 DAA): 81.5%; pest or weed control at 560 g/ha ([6]; 168 h, 7 DAA): 85.5%; pest or weed control at 280 g/ha ([6]; 336 h, 14 DAA): 93.5%; pest or weed control at 560 g/ha ([6]; 336 h, 14 DAA): 97.3%; pest or weed control at 280 g/ha ([6]; 504 h, 21 DAA): 97%; pest or weed control at 560 g/ha ([6]; 504 h, 21 DAA): 99.3%; pest or weed control at 280 g/ha ([7]; 168 h, 7 DAA): 85%; pest or weed control at 560 g/ha ([7]; 168 h, 7 DAA): 85%; pest or weed control at 280 g/ha ([7]; 336 h, 14 DAA): 100%; pest or weed control at 560 g/ha ([7]; 336 h, 14 DAA): 99%; pest or weed control at 280 g/ha ([7]; 504 h, 21 DAA): 100%; pest or weed control at 560 g/ha ([7]; 504 h, 21 DAA): 100%
3 | CC(C)ONC(=O)COc1ccc(Cl)cc1Cl [Compound D23] | 70% | 90% | 93.5% | 99% | 99% | 100% | 77.5% | 75% | 80% | 85% | 100% | 100% | 80% | 85% | 96.5% | 99% | 94% | 95% | 82.5% | 82.5% | pest or weed control at 280 g/ha ([4]; 336 h, 14 DAA): 90%; pest or weed control at 560 g/ha ([4]; 336 h, 14 DAA): 90%; pest or weed control at 280 g/ha ([4]; 504 h, 21 DAA): 72.5%; pest or weed control at 560 g/ha ([4]; 504 h, 21 DAA): 87.5%; TGA Data (rate of weight loss, volatility) [5]: 0.6973 µg/min; pest or weed control at 280 g/ha ([6]; 168 h, 7 DAA): 78%; pest or weed control at 560 g/ha ([6]; 168 h, 7 DAA): 82%; pest or weed control at 280 g/ha ([6]; 336 h, 14 DAA): 92%; pest or weed control at 560 g/ha ([6]; 336 h, 14 DAA): 94.1%; pest or weed control at 280 g/ha ([6]; 504 h, 21 DAA): 92.9%; pest or weed control at 560 g/ha ([6]; 504 h, 21 DAA): 96.5%; pest or weed control at 280 g/ha ([7]; 168 h, 7 DAA): 80%; pest or weed control at 560 g/ha ([7]; 168 h, 7 DAA): 77.5%; pest or weed control at 280 g/ha ([7]; 336 h, 14 DAA): 100%; pest or weed control at 560 g/ha ([7]; 336 h, 14 DAA): 97.5%; pest or weed control at 280 g/ha ([7]; 504 h, 21 DAA): 99%; pest or weed control at 560 g/ha ([7]; 504 h, 21 DAA): 100%
4 | O=C(COc1ccc(Cl)cc1Cl)Nc1nccs1 [Compound D24] | 40% | 47.5% | 55% | 65% | 70% | 70% | 77.5% | 67.5% | 80% | 92.5% | 100% | 100% | 82.5% | 75% | 90% | 92.5% | 90% | 95% | 80% | 85% | pest or weed control at 280 g/ha ([4]; 336 h, 14 DAA): 87.5%; pest or weed control at 560 g/ha ([4]; 336 h, 14 DAA): 85%; pest or weed control at 280 g/ha ([4]; 504 h, 21 DAA): 77.5%; pest or weed control at 560 g/ha ([4]; 504 h, 21 DAA): 92.5%; TGA Data (rate of weight loss, volatility) [5]: 0.08298 µg/min; pest or weed control at 280 g/ha ([6]; 168 h, 7 DAA): 70%; pest or weed control at 560 g/ha ([6]; 168 h, 7 DAA): 70%; pest or weed control at 280 g/ha ([6]; 336 h, 14 DAA): 81.5%; pest or weed control at 560 g/ha ([6]; 336 h, 14 DAA): 84.5%; pest or weed control at 280 g/ha ([6]; 504 h, 21 DAA): 87%; pest or weed control at 560 g/ha ([6]; 504 h, 21 DAA): 91.4%; pest or weed control at 280 g/ha ([7]; 168 h, 7 DAA): 70%; pest or weed control at 560 g/ha ([7]; 168 h, 7 DAA): 75%; pest or weed control at 280 g/ha ([7]; 336 h, 14 DAA): 95%; pest or weed control at 560 g/ha ([7]; 336 h, 14 DAA): 87.5%; pest or weed control at 280 g/ha ([7]; 504 h, 21 DAA): 97.5%; pest or weed control at 560 g/ha ([7]; 504 h, 21 DAA): 99.5%
